Experiments:
[1] = target: T1, CYP1A2 (Homo sapiens, UniProt P05177); assay: Cocktail assay for CYPs in human liver microsomes, phenacetin O-deethylation (1A2); format: biochemical; settings: 10 μM phenacetin, 10 min at 37° C.
T1 construct: 0.1 mg/mL protein human liver microsomes (BD Gentest); tissue BD Gentest; host or cells: human liver microsomes
T1 sequence (P05177 1-516): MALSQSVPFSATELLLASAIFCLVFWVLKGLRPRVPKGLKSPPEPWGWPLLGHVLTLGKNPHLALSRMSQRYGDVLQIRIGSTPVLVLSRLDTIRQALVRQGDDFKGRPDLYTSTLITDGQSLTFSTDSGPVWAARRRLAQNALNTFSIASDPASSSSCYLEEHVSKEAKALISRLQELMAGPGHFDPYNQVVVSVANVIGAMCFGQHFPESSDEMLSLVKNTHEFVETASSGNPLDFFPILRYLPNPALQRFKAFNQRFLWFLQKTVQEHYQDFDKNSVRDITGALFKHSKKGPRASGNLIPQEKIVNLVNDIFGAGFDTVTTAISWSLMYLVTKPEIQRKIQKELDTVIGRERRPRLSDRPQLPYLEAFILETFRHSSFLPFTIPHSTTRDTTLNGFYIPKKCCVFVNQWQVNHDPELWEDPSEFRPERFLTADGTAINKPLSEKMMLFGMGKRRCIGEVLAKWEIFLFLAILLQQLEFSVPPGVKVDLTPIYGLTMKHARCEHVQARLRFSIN
Experimental: (§1) This assay was performed in a standard 96-well plate design. IC50 values were calculated from the percent inhibition observed for each test compound at 6 concentrations (for example, 0.0032, 0.016, 0.08, 0.4, 2 and 10 μM). The incubation substrate mix contains 10 μM phenacetin (1A2), 5 μM diclofenac (2C9), 30 μM mephenytoin (2C19), 5 μM dextromethorphan (2D6) and 2 μM midazolam (3A4), 0.1 mg/mL protein human liver microsomes (BD Gentest), 1 mM NAPDH, 3.3 mM MgCl2 and 100 mM potassium phosphate buffer (pH 7.4). The production of the metabolite of each probe substrate was determined after incubation for 10 min at 37° C. Quantitation of the metabolite peak area ratio against an internal standard (tolbutamide) was determined by LC/MS/MS analysis following acetonitrile treatment of the incubations.
(§2) Samples were analyzed in the MRM mode with a SCIEX API-4000 mass spectrometer (Applied Biosystems, Foster City, Calif.), with a Shimadzu LC-20 AD pump (Shimadzu corporation, Kyoto, JP) and a CTC PAL autosampler (Agilent Technologies, Switzerland). A Phenomenex, Luna, 5 μm, 100A, 2.00×30 mm HPLC column was used for the separation. The mobile phases were: (A) 0.1% formic acid in water and (B) 0.1% formic acid in acetonitrile. The binary gradient was as follows. AutoSampler: CTC PAL
(§3) The peak area ratio of the analyte to the internal standard was used to quantify the metabolite. The values of peak area ratios in the presence of test compound were compared to those of maximum or minimum controls and were expressed as % inhibition by interpolating between the maximum and minimum peak area ratios. Incubations with no inhibitor were defined as the maxima. The following equation was used to calculate the % inhibition: [1−[(X−Low control)/(High control−Low control)]]*100 For the IC50 calculation, SigmaPlot was used to plot the mean % inhibition versus the test compound concentrations and for non-linear regression analysis of the data. Depending on the range of data points defining the inhibition curve, the data may have been fit to the 4-parameter logistic equation.

[2] = target: T2, human CYP11B2 (Homo sapiens, UniProt P19099); assay: IC50 vs CYP11B2 by measurement of aldosterone synthesis in V79 cells; format: cell-based; settings: V79 cells expressing human CYP11B2, 750 nM DOC, aldosterone HTRF
T2 construct: expressed in transfected cells
T2 sequence (P19099 25-503): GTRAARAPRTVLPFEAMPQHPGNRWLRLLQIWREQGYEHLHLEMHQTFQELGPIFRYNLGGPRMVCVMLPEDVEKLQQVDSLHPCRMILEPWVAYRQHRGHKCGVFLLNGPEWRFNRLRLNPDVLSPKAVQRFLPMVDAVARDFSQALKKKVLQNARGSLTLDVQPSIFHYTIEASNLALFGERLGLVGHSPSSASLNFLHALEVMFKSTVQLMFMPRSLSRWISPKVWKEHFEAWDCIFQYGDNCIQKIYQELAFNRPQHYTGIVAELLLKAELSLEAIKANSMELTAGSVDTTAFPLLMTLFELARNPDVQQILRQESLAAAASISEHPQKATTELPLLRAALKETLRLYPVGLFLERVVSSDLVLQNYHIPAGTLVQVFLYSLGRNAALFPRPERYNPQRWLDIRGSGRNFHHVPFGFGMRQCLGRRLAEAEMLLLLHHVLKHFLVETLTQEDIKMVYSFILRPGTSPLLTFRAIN
Experimental: (§4) This assay was performed in a standard 384-well plate design using cultured V79 cells stably expressing human CYP11B1 or human CYP11B2. Test compounds at 10 concentrations (for example, 10000, 3333.3, 1111.1, 370.4, 123.5, 41.2, 13.7, 4.6, 1.5 and 0.5 nM) were added in 384-well plate after the cell-seeding procedure. The incubation substrate contains 1500 nM RSS for CYP11B1 assay/750 nM DOC for CYP11B2 assay. The Cortisol/Aldosterone production of cell culture supernatant was determined by Cortisol/Aldosterone HTRF kit after for about 15 hours incubation at RT (protect from light). IC50 (nM) values were calculated from the percent inhibition observed for each test compound at 10 concentrations.
(§5) The assay plate was read using Envision (Perkin Elmer, Waltham, Mass.) at 665 nm and 590 nm (using Filter Barcode of 217#, 205#; Mirror Barcode of 446#).
(§6) Data are analyzed using Assay Data Analyzer. All ratio data (665 nm/590 nm) are back calculated according to the standard curve, resulting in Cortisol/Aldosterone concentrations. IC50 (nM) values are reported as the Inflection Point (IP) of a four parameter fit of the titration data.
(§7) The following equation was used to calculate the % inhibition: % Activity=100×{1−(Sample_back calculated Cortisol/Aldosterone concentration−LC_back calculated Cortisol/Aldosterone concentration)/(HC_back calculated Cortisol/Aldosterone concentration−LC_back calculated Cortisol/Aldosterone concentration)} Curve Fitting: Four Parameter Logistic: […]

[3] = target: T3, CYP2C9 (Homo sapiens, UniProt P11712); assay: Cocktail assay for CYPs in human liver microsomes, diclofenac 4′-hydroxylation (2C9); format: biochemical; settings: 5 μM diclofenac, 10 min at 37° C.
T3 construct: 0.1 mg/mL protein human liver microsomes (BD Gentest); tissue BD Gentest; host or cells: human liver microsomes
Experimental: as §1, §2, §3

[4] = target: T4, CYP2C19 (Homo sapiens, UniProt P33261); assay: Cocktail assay for CYPs in human liver microsomes, mephenytoin 4′-hydroxylation (2C19); format: biochemical; settings: 30 μM mephenytoin, 10 min at 37° C.
T4 construct: 0.1 mg/mL protein human liver microsomes (BD Gentest); tissue BD Gentest; host or cells: human liver microsomes
Experimental: as §1, §2, §3

[5] = target: T5, CYP3A4 (Homo sapiens, UniProt P08684); assay: Cocktail assay for CYPs in human liver microsomes, midazolam 1′-hydroxylation (3A4); format: biochemical; settings: 2 μM midazolam, 10 min at 37° C.
T5 construct: 0.1 mg/mL protein human liver microsomes (BD Gentest); tissue BD Gentest; host or cells: human liver microsomes
Experimental: as §1, §2, §3

[6] = target: T6, CYP2D6 (Homo sapiens, UniProt P10635); assay: Cocktail assay for CYPs in human liver microsomes, dextromethorphan O-demethylation (2D6); format: biochemical; settings: 5 μM dextromethorphan, 10 min at 37° C.
T6 construct: 0.1 mg/mL protein human liver microsomes (BD Gentest); tissue BD Gentest; host or cells: human liver microsomes
Experimental: as §1, §2, §3

[7] = target: T7, human CYP11B1 (Homo sapiens, UniProt P15538); assay: IC50 vs CYP11B1 by measurement of cortisol synthesis in V79 cells; format: cell-based; settings: V79 cells expressing human CYP11B1, 1500 nM RSS, cortisol HTRF
T7 construct: expressed in transfected cells
T7 sequence (P15538 25-503): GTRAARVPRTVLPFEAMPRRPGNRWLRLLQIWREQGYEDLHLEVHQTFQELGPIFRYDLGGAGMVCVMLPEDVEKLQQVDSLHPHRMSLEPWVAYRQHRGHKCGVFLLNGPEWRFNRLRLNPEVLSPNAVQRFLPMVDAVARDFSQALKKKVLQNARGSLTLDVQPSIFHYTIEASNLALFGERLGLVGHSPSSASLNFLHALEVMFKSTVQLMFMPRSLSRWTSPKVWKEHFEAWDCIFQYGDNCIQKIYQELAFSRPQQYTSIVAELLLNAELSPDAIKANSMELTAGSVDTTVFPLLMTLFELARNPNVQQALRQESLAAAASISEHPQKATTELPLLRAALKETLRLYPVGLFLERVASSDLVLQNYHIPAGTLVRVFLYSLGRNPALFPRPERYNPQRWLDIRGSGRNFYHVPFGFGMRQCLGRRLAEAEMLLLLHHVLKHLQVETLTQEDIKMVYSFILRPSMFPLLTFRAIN
Experimental: as §4, §5, §6, §7

T3 sequence (P11712 whole entry): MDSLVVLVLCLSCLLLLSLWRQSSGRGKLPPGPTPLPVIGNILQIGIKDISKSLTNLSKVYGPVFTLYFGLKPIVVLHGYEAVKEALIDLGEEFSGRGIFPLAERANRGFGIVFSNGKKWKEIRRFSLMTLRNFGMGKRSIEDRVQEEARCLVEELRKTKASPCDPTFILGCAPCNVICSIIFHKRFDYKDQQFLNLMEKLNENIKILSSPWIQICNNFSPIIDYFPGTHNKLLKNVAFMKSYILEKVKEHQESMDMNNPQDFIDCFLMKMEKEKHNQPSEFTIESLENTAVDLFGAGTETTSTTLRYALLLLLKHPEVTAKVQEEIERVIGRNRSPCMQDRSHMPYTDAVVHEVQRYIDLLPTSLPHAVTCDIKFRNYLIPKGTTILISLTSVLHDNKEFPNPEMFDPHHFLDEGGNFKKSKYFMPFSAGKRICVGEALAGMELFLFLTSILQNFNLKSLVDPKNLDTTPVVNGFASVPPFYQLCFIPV
T6 sequence (P10635 whole entry): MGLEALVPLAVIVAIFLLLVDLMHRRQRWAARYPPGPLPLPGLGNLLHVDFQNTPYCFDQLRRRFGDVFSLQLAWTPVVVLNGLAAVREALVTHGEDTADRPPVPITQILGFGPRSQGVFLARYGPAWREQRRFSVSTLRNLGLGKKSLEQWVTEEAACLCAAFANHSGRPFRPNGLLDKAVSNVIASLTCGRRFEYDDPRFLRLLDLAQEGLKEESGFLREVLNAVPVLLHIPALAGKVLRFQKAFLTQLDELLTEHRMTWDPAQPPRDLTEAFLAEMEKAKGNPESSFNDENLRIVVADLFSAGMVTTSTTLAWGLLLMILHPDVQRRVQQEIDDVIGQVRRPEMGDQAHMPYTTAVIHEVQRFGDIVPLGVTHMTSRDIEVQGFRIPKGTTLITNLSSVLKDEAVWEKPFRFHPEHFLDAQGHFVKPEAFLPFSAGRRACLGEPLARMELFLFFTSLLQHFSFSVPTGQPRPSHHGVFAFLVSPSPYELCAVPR
T4 sequence (P33261 whole entry): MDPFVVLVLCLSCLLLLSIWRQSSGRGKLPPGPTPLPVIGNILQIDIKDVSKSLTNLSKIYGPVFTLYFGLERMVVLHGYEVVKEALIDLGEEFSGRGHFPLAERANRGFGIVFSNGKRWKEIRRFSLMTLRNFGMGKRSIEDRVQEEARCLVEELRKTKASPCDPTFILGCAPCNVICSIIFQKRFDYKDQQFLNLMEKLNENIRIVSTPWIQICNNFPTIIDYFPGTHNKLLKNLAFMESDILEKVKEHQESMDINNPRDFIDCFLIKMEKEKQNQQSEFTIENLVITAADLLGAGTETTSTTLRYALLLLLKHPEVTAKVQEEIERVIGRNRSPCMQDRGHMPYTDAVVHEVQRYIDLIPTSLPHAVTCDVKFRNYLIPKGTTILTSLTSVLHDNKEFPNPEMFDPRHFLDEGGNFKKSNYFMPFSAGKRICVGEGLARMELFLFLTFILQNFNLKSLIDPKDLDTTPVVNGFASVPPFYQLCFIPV
T5 sequence (P08684 whole entry): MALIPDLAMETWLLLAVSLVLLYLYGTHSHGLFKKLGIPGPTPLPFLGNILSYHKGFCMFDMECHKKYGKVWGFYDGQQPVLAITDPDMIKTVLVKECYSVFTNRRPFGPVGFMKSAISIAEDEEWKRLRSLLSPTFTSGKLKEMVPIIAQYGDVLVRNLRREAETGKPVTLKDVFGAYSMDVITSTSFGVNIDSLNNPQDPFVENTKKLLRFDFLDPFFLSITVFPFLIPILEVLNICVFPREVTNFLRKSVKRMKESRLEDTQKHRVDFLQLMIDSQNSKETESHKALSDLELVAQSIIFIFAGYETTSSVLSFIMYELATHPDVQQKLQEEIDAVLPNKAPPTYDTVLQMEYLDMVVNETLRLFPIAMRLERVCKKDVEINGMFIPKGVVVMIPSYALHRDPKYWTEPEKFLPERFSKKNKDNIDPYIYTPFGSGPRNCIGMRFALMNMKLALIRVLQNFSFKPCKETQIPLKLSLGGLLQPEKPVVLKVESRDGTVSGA

Compound	IC50 [1]	IC50 [2]	IC50 [3]	IC50 [4]	IC50 [5]	IC50 [6]	IC50 [7]
CC(C)c1ccccc1[C@H](C)n1cncc1C(=O)N1CCC2NCCO[C@@H]2C1 (stereo partly drawn) [Compound 47]	> 10 µM	9.02 µM	> 10 µM	> 10 µM	0.0085 µM	9.25 µM	45.3 µM
C[C@@H](c1ccccc1-c1ccc(F)cc1)n1cncc1C(=O)N1CC[C@@H](N2CCOCC2)[C@@H](F)C1 [Compound 29]	> 10 µM	> 50 µM	> 10 µM	> 10 µM	0.0063 µM	6.22 µM	22 µM
CO[C@H]1CN(C2CCN(C(=O)c3cncn3[C@@H](C)c3ccccc3-c3ccc(F)cc3)CC2)C[C@@H]1O [Compound 22]	> 10 µM	> 50 µM	> 10 µM	> 10 µM	0.004 µM	9.75 µM	21.4 µM
C[C@H]1CN(C(=O)c2cncn2[C@@H](C)c2ccccc2-c2ccc(F)cc2)CC[C@H]1N1CCNC(=O)C1 [Compound 31]	> 10 µM	> 50 µM	> 10 µM	> 10 µM	0.0097 µM	9.6 µM	28.1 µM
C[C@@H](c1ccccc1-c1ccc(F)cc1)n1cncc1C(=O)N1CCn2c(nnc2C2CC2)C1 [Compound 5]	> 10 µM	> 50 µM	> 10 µM	7.57 µM	0.0061 µM	≥ 10 µM	42.6 µM
C[C@@H](c1ccccc1-c1ccc(F)cc1)n1cncc1C(=O)N1CCC(N2CCc3nccnc3C2)CC1 [Compound 28]	> 10 µM	> 50 µM	> 10 µM	> 10 µM	0.0054 µM	> 10 µM	14.9 µM
C[C@@H](c1ccccc1-c1ccc(F)cc1F)n1cncc1C(=O)N1CCC2NCCO[C@@H]2C1 (stereo partly drawn) [Compound 38]	> 10 µM	> 50 µM	> 10 µM	> 10 µM	0.0089 µM	> 10 µM	25.3 µM
C[C@@H](c1ccccc1-c1ccc(F)cc1)n1cncc1C(=O)N1CCCC(N2CCC(C)(O)CC2)CC1 (single isomer, unassigned) [Compound 3b]	> 10 µM	42.6 µM	> 10 µM	> 10 µM	0.0066 µM	2.39 µM	12.6 µM
C[C@@H](c1ccccc1-c1cccc(F)c1)n1cncc1C(=O)N1CCC2NCCO[C@@H]2C1 (stereo partly drawn) [Compound 36]	> 10 µM	> 50 µM	> 10 µM	> 10 µM	0.0096 µM	> 10 µM	32.7 µM
C[C@@H](c1ccccc1-c1ccc(F)cc1)n1cncc1C(=O)N1CCC(N2CCCC(C)(O)C2)CC1 (stereo partly drawn) [Compound 9]	> 10 µM	> 50 µM	> 10 µM	> 10 µM	0.0066 µM	6.63 µM	24.9 µM

Second part, the compound after the results:

IC50 [1]	IC50 [2]	IC50 [3]	IC50 [4]	IC50 [5]	IC50 [6]	IC50 [7]	Compound
> 10 µM	> 50 µM	> 10 µM	> 10 µM	0.0047 µM	> 10 µM	5.62 µM	C[C@@H](c1ccccc1-c1ccccc1OC(F)(F)F)n1cncc1C(=O)N1CCC2NCCO[C@@H]2C1 (stereo partly drawn) [Compound 42]
> 10 µM	> 50 µM	> 10 µM	> 10 µM	0.0057 µM	> 10 µM	45.5 µM	CCc1nnc2n1CCN(C(=O)c1cncn1[C@@H](C)c1ccccc1-c1ccc(F)cc1)C2 [Compound 7, (S)-(3-ethyl-5,6-dihydro-[1,2,4]triazolo[4,3-a]pyrazin-7(8H)-yl)(1-(1-(4′-fluoro-[1,1′-biphenyl]-2-yl)ethyl)-1H-imidazol-5-yl)methanone]
> 10 µM	> 50 µM	> 10 µM	> 10 µM	0.011 µM	> 10 µM	16.4 µM	C[C@@H](c1ccccc1-c1ccc(F)cc1)n1cncc1C(=O)N1CCC[C@@H]2OCCN[C@H]2C1 [Compound 53]
> 10 µM	> 50 µM	> 10 µM	> 10 µM	0.0048 µM	> 10 µM	20.8 µM	C[C@@H](c1ccccc1-c1ccc(F)cc1)n1cncc1C(=O)N1CCC2NC(=O)COC2(C)C1 (stereo partly drawn) [Compound 51]
> 10 µM	> 50 µM	> 10 µM	> 10 µM	0.0032 µM	> 10 µM	3.93 µM	C[C@@H](c1ccccc1-c1ccc(F)cc1)n1cncc1C(=O)N1CCC[C@H]2OCCN[C@@H]2C1 [Compound 52]
